Measured values taken from publication PMC11672637, “7-O-Carboxylic Acid-Substituted 3-O-Alkyl Difluoroquercetin; An Aztreonam-Potentiating Agent Against Carbapenemase-Producing Pseudomonas aeruginosa Through Simultaneous Inhibition of Metallo-β-Lactamase and Efflux Pump” (Antibiotics, 2024).

Assays:
[1] = system: NDM-1-Producing P. aeruginosa (PA-017, blaNDM); assay: MIC / checkerboard with ATM; format: cell-based; settings: PA-017; for MIC: Pseudomonas aeruginosa, compound alone, read-out: MIC, Cmpd
AmpC = assay: β-lactamase inhibition assay (nitrocefin); format: biochemical; settings: nitrocefin substrate; read-out: BLi, IC50 AmpC
Protocol: (§1) Recombinant AmpC, OXA-48 (residues 23–265) and VIM-2 (residues 27–266) were prepared from Escherichia coli based on previously established protocols. KPC-2 and NDM-1 are commercially available from LifeSpan Biosciences, Inc., Seattle, WA, USA (LS-G26598) and RayBiotech, Inc., Peachtree Corners, GA, USA (230-00554), respectively. For β-lactamase inhibition assay, in a 96-well plate, 70–0.1 μM (in PBS) of the synthesized compounds (1~14) (100 μL) were mixed with diluted β-lactamase stock (2% DMSO in 200 μL). In a separate 96-well plate, a substrate of AmpC, KPC-2, OXA-48, and VIM-2 (nitrocefin) and NDM-1 (imipenem) were added into each well (final concentrations of 70 μM for nitrocefin and 100 μM for imipenem). After incubation at 37 °C for 20 min, the mixture of the synthesized compounds (1~14) and β-lactamase in one plate was added to the substrate in the other plate. Enzymatic hydrolysis of the substrate was then monitored by a Cytation 5 imaging multimode reader (BioTek Instruments Inc., Winooski, VT, USA) at 486 nm and 300 nm for nitrocefin and imipenem, respectively, for 15 min. The rates of hydrolysis in the presence of the inhibitors were determined when the reaction rate plateaued. Comparison of the enzymatic hydrolysis rates in the presence and the absence of inhibitors (100%) provided the percentage of enzyme inhibition at each concentration of the synthesized compounds. The IC50 values were obtained after non-linear regression (sigmoidal dose-responses) by GraphPad Prism 5 (GraphPad Software, Boston, MA, USA).

[2] = rat, cited from earlier work
[3] = system: efflux pump activity in P. aeruginosa (PA-017, blaNDM); assay: EtBr accumulation, inhibition of efflux pump activity; format: cell-based; settings: EtBr fluorescence compared with positive control CCCP
Protocol: The NDM-producing P. aeruginosa clinical isolate (PA-017, blaNDM) (5 mL, LB medium) was grown to reach the mid-log phase. After centrifugation at 3500 rpm for 15 min, the bacterial pellet was washed twice with PBS and resuspended to OD600 = 0.3 in PBS. To each well of a flat-bottomed black 96-well plate, 182 µL of the bacterial suspension, 4 µL of glucose [final concentration = 0.4% (w/v)], 4 µL of the synthesized compounds or positive control CCCP, and 10 µL of EtBr (final concentration = 1 µg/mL) were added. The plate was incubated at 37 °C, and fluorescence emission from EtBr (λex 480 nm/λem 630 nm) was recorded every 2 min (for 60 min) using a Cytation 5 imaging multi-mode reader (BioTek Instruments, Inc., Winooski, VT, USA).

[4] = system: Ambler Class C β-lactamases; set-up: method as in earlier work; settings: Table S1; cited from earlier work
[5] = system: Ambler Class A β-lactamases; set-up: method as in earlier work; settings: Table S1; cited from earlier work
[6] = system: Ambler Class D β-lactamases; set-up: method as in earlier work; settings: Table S1; cited from earlier work
KPC-2 = biological target: T1, KPC-2 (Klebsiella pneumoniae, UniProt Q9F663); assay: β-lactamase inhibition assay (nitrocefin); format: biochemical; settings: nitrocefin substrate; read-out: BLi, IC50 KPC-2
T1 construct: purchased LifeSpan Biosciences, Inc. LS-G26598
T1 sequence (Q9F663 25-293, looked up, species assumed): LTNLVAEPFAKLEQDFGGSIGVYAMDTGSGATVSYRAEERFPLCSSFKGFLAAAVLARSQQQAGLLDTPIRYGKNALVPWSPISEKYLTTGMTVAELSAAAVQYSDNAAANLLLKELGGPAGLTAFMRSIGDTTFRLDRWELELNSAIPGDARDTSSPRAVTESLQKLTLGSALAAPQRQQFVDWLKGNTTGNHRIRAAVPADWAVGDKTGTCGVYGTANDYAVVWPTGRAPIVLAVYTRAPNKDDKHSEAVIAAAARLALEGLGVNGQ
Protocol: as §1

OXA-48 = biological target: T2, OXA-48 (Klebsiella pneumoniae, UniProt Q6XEC0); assay: β-lactamase inhibition assay (nitrocefin); format: biochemical; settings: nitrocefin substrate; read-out: BLi, IC50 OXA-48
T2 construct: OXA-48 (residues 23–265); made in house; host or cells: Escherichia coli
T2 sequence (Q6XEC0 23-265 limits assumed): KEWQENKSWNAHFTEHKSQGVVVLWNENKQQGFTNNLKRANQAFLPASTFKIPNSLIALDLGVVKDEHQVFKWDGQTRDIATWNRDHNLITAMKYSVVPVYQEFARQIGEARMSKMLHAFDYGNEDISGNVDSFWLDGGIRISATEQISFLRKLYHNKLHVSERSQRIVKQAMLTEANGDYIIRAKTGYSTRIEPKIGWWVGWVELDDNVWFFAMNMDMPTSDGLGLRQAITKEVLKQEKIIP
Protocol: as §1

VIM-2 = biological target: T3, VIM-2 (Escherichia coli, UniProt Q5U7L7); assay: β-lactamase inhibition assay (nitrocefin); format: biochemical; settings: nitrocefin substrate; read-out: BLi, IC50 VIM-2
T3 construct: VIM-2 (residues 27–266); made in house; host or cells: Escherichia coli
Protocol: as §1

NDM-1 = biological target: T4, NDM-1 (Klebsiella pneumoniae, UniProt C7C422); assay: β-lactamase inhibition assay (imipenem); format: biochemical; settings: imipenem substrate; read-out: BLi, IC50 NDM-1
T4 construct: purchased RayBiotech, Inc. 230-00554
T4 sequence (C7C422 29-270, looked up, species assumed): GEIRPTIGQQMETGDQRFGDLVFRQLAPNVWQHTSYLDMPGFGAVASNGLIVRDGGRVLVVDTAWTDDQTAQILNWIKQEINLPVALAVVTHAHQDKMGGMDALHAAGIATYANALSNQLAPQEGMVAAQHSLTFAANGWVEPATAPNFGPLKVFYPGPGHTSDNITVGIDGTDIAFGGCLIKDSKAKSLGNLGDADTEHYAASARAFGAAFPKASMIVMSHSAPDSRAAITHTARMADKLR
Protocol: as §1

What does the source list for `CC(C)(C)CCOc1c(-c2ccc(F)c(F)c2)oc2cc(O)cc(O)c2c1=O` [Compound 1]?
FD (fold decrease in the MIC of ATM upon combination with the compound) [1]: 2; MIC [1]: > 256 mg/L; IC50 (AmpC): 18.9 ± 1.8 µM; F (mean oral bioavailability) [2]: 0.27%; AUClast ([2]; oral administration): 0.02 µg·h/mL; Cmax ([2]; oral administration): 0.01 µg/mL; EPi (inhibition of efflux pump activity) [3]: ↑↑↑ ^e

Which “BLi activity (Ambler Class C)” value [4] does the source give for `NC(=O)[C@@H]1CC[C@@H]2CN1C(=O)N2OS(=O)(=O)O` [AVI, avibactam] here?
The value was “inhibits”.

And the “BLi activity (Ambler Class A)” value [5]?
The value was “inhibits”.

What about the “BLi activity (Ambler Class D)” value [6] of the same molecule?
The value was “inhibits”.

With `O=C(O)COc1cc(O)c2c(=O)c(OCCC3CCCCC3)c(-c3ccc(F)c(F)c3)oc2c1` [Compound 7, 2-((3-(2-Cyclohexylethoxy)-2-(3,4-difluorophenyl)-5-hydroxy-4-oxo-4H-chromen-7-yl)oxy)acetic Acid] as the molecule, how does the “FD (fold decrease in the MIC of ATM upon combination with the compound)” value [1] read?
The value was 4.

What about the MIC [1] of the same molecule?
Its MIC is greater than 256 mg/L.

What about the IC50 (KPC-2) of the same molecule?
Its IC50 is greater than 50 µM.

What about the IC50 (OXA-48) of the same molecule?
Its IC50 is greater than 100 µM.

What about the IC50 (AmpC) of the same molecule?
Its IC50 is greater than 50 µM.

What about the IC50 (VIM-2) of the same molecule?
The IC50 was 21 ± 1.3 µM.

What about the IC50 (NDM-1) of the same molecule?
The IC50 was 14.7 ± 1.6 µM.

What about the “EPi (inhibition of efflux pump activity)” value [3] of the same molecule?
The value was “↑ ^g”.

For `CN1CCCC1CCOc1cc(O)c2c(=O)c(OCCC(C)(C)C)c(-c3ccc(F)c(F)c3)oc2c1` (stereo not drawn) [Compound 12, 2-(3,4-Difluorophenyl)-3-(3,3-dimethylbutoxy)-5-hydroxy-7-(2-(1-methylpyrrolidin-2-yl)ethoxy)-4H-chromen-4-one], which “FD (fold decrease in the MIC of ATM upon combination with the compound)” value [1] is on record?
The value was 2.

What about the MIC [1] of the same molecule?
Its MIC is greater than 256 mg/L.

And the IC50 (KPC-2)?
The IC50 was greater than 50 µM.

And the IC50 (OXA-48)?
Its IC50 is greater than 100 µM.

And the IC50 (AmpC)?
Its IC50 is greater than 50 µM.

What about the IC50 (VIM-2) of the same molecule?
Its IC50 is greater than 100 µM.

What about the IC50 (NDM-1) of the same molecule?
Its IC50 is greater than 50 µM.

And the “EPi (inhibition of efflux pump activity)” value [3]?
The value was “- ^f”.

For `CC(C)(C)CCOc1c(-c2ccc(F)c(F)c2)oc2cc(OCC(=O)N[C@@H](CCCCN)C(=O)O)cc(O)c2c1=O.Cl` [Compound 11, (S)-6-Amino-2-(2-((2-(3,4-difluorophenyl)-3-(3,3-dimethylbutoxy)-5-hydroxy-4-oxo-4H-chromen-7-yl)oxy)acetamido)hexanoic Acid Hydrochloride], which “FD (fold decrease in the MIC of ATM upon combination with the compound)” value [1] is on record?
The value was 1.

And the MIC [1]?
The MIC was greater than 256 mg/L.

What about the IC50 (KPC-2) of the same molecule?
The IC50 was greater than 50 µM.

What about the IC50 (OXA-48) of the same molecule?
The IC50 was greater than 100 µM.

And the IC50 (AmpC)?
The IC50 was greater than 50 µM.

What about the IC50 (VIM-2) of the same molecule?
The IC50 was greater than 100 µM.

What about the IC50 (NDM-1) of the same molecule?
The IC50 was greater than 50 µM.

And the “EPi (inhibition of efflux pump activity)” value [3]?
Its value is “- ^f”.

What does the source list for `CC(C)(C)CCOc1c(-c2ccc(F)c(F)c2)oc2cc(OCC(=O)Nc3ccccc3)cc(O)c2c1=O` [Compound 9, 2-((2-(3,4-Difluorophenyl)-3-(3,3-dimethylbutoxy)-5-hydroxy-4-oxo-4H-chromen-7-yl)oxy)-N-phenylacetamide]?
FD (fold decrease in the MIC of ATM upon combination with the compound) [1]: 1; MIC [1]: > 256 mg/L; IC50 (KPC-2): 26.2 ± 1.5 µM; IC50 (OXA-48): 6.4 ± 0.6 µM; IC50 (AmpC): > 50 µM; IC50 (VIM-2): 12.6 ± 1.2 µM; IC50 (NDM-1): 7.6 ± 0.3 µM; EPi (inhibition of efflux pump activity) [3]: - ^f

With `O=C(O)CC(Oc1cc(O)c2c(=O)c(OCCC3CCCCC3)c(-c3ccc(F)c(F)c3)oc2c1)C(=O)O` (stereo not drawn) [Compound 4, 2-((3-(2-Cyclohexylethoxy)-2-(3,4-difluorophenyl)-5-hydroxy-4-oxo-4H-chromen-7-yl)oxy)succinic Acid] as the molecule, how does the “FD (fold decrease in the MIC of ATM upon combination with the compound)” value [1] read?
The value was 1.

And the MIC [1]?
The MIC was greater than 256 mg/L.

And the IC50 (KPC-2)?
The IC50 was greater than 50 µM.

And the IC50 (OXA-48)?
Its IC50 is greater than 100 µM.

What about the IC50 (AmpC) of the same molecule?
Its IC50 is greater than 50 µM.

And the IC50 (VIM-2)?
Its IC50 is greater than 100 µM.

And the IC50 (NDM-1)?
The IC50 was greater than 50 µM.

What about the “EPi (inhibition of efflux pump activity)” value [3] of the same molecule?
The value was “- ^f”.

What does the source list for `CN1CCN(CCOc2cc(O)c3c(=O)c(OCCC(C)(C)C)c(-c4ccc(F)c(F)c4)oc3c2)CC1` [Compound 13, 2-(3,4-Difluorophenyl)-3-(3,3-dimethylbutoxy)-5-hydroxy-7-(2-(4-methylpiperazin-1-yl)ethoxy)-4H-chromen-4-one]?
FD (fold decrease in the MIC of ATM upon combination with the compound) [1]: 2; MIC [1]: > 256 mg/L; IC50 (KPC-2): > 50 µM; IC50 (OXA-48): > 100 µM; IC50 (AmpC): > 50 µM; IC50 (VIM-2): > 100 µM; IC50 (NDM-1): > 50 µM; EPi (inhibition of efflux pump activity) [3]: - ^f

For `O=C(O)COc1cc(O)c2c(=O)c(OCCC3CCCC3)c(-c3ccc(F)c(F)c3)oc2c1` [Compound 6, 2-((3-(2-Cyclopentylethoxy)-2-(3,4-difluorophenyl)-5-hydroxy-4-oxo-4H-chromen-7-yl)oxy)acetic Acid], which “FD (fold decrease in the MIC of ATM upon combination with the compound)” value [1] is on record?
Its value is 4.

And the MIC [1]?
The MIC was greater than 256 mg/L.

What about the IC50 (KPC-2) of the same molecule?
Its IC50 is greater than 50 µM.

And the IC50 (OXA-48)?
The IC50 was greater than 100 µM.

And the IC50 (AmpC)?
Its IC50 is greater than 50 µM.

What about the IC50 (VIM-2) of the same molecule?
The IC50 was 37.3 ± 0.6 µM.

What about the IC50 (NDM-1) of the same molecule?
The IC50 was 16.1 ± 1.1 µM.

And the “EPi (inhibition of efflux pump activity)” value [3]?
The value was “↑ ^g”.
